How the values were obtained:
[1] = molecular target: T1, caspase-7 (Homo sapiens, UniProt P55210); assay: Irreversible inhibitor kinetic assay (progress curve), caspase-7, substrate Ac-DEVD-AMC; assay type: biochemical; conditions: casp-7; duplicate, SD included
T1 construct: gift: Guy Salvesen's laboratory, Burnham Institute (La Jolla, Calif.)
T1 sequence (P55210 24-198 limits assumed): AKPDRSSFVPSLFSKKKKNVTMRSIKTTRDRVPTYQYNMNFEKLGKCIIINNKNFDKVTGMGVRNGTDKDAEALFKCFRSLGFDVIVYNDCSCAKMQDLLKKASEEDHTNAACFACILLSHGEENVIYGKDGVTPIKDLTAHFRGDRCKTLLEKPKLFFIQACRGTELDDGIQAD
T1 sequence (P55210 207-303 limits assumed): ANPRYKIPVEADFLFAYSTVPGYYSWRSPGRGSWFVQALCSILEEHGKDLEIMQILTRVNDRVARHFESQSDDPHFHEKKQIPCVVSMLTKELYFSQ
Source text: (§1) Caspases-3, -6, -7, -8, and -9 were provided by Guy Salvesen's laboratory at the Burnham Institute (La Jolla, Calif.). Caspase-1 was purchased from EMD Biosciences (San Diego, Calif.) and Caspase-2 was purchased from Biomol International (Plymouth Meeting, Pa.). Caspase substrates Ac-DEVD-AMC, Ac-VDVAD-AFC, and Ac-LEHD-AFC were purchased from EMD Biosciences (San Diego, Calif.) and Ac-VDVAD-AMC was purchased from Biomol International (Plymouth Meeting, Pa.). The proteolytic cleavage of N-acyl aminocoumarins by caspases was conducted in Dynatech Microfluor fluorescence 96-well microtiter plates, and readings were taken on a Molecular Devices Spectra Max Gemini XS instrument. The excitation wavelength was 370 nm and the emission wavelength was 455 nm for AMCA substrates, the excitation wavelength was 355 nm and the emission wavelength was 450 nm for peptidyl AMC substrates, and the excitation wavelength was 430 nm and the emission wavelength was 535 nm for peptidyl AFC substrates.
(§2) The kinact/Ki for inhibitors were determined under pseudo-first order conditions using the progress curve method (Eckici et al. (2006) J. Med. Chem., 49: 5728-5749; Bieth (1995) Meth. Enzymol., 248: 59-84). Assay wells contained a mixture of inhibitor and AMC or AFC substrate in buffer. Aliquots of caspase were added to each well to initiate the assay. Hydrolysis of the AMC or AFC substrate was monitored fluorometrically for 45 min. To determine the inhibition parameters, time points for which the control ([I]=0) was linear were used. For each inhibitor, a kobs was calculated for at least four different concentrations of inhibitors via a nonlinear regression of the data according to the equation P=(vi/kobs)[1−exp(−kobst) (where product formation=P, […], and the first-order rate constant=kobs). If kobs varied linearly with [I], then the association constant kass was determined by linear regression analysis using kobs=(kass[I])/(1+[S]/Km) where [S] is the concentration of the substrate. […] Inhibition was measured in duplicate and the average of is reported. […]

[2] = molecular target: T2, caspase-2 (Homo sapiens, UniProt P42575); assay: Irreversible inhibitor kinetic assay (progress curve), caspase-2, substrate Ac-VDVAD-AMC; assay type: biochemical; conditions: casp-2; duplicate, SD included
T2 sequence (P42575 170-325 limits assumed): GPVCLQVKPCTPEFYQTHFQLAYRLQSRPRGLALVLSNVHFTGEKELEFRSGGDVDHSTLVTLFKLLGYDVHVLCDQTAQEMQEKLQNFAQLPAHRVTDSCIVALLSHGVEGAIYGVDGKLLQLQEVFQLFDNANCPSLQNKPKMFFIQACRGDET
T2 sequence (P42575 348-452 limits assumed): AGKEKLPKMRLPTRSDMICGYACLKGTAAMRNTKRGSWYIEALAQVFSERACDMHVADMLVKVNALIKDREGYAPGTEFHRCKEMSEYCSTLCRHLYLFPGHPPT
Source text: as §1, §2

kinact/Ki [1]	kass (kinact/Ki, footnote a) [2] [s^−1/M^−1]	Compound
27,700 ± 2,000 s^−1/M^−1	33.0 ± 0.5	C[C@@](NS(=O)(=O)Cc1ccccc1)(c1cn([C@@H](CC(=O)O)C(=O)COc2c(F)c(F)cc(F)c2F)nn1)C1CCCCC1 [MJL-001i]
57,250 ± 1,550 s^−1/M^−1	2.0 ± 0.1	C[C@@](NC(=O)CCCC(=O)O)(c1cn([C@@H](CC(=O)O)C(=O)COc2c(F)c(F)cc(F)c2F)nn1)C1CCCCC1 [MJL-002i]
34,200 ± 3,800 s^−1/M^−1	6.90 ± 0.3	C[C@@](NC(=O)Cc1ccccc1)(c1cn([C@@H](CC(=O)O)C(=O)COc2c(F)c(F)cc(F)c2F)nn1)C1CCCCC1 [MJL-003i]

From US8518942B2, “Caspase inhibitors and uses thereof” (Buck Institute for Research on Aging, priority 2008, dated 2013)
